Data on 15 molecules can be found in PubChem BioAssay (NCI).

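Grown in 96-well plates, cells were treated for 48 hours with each compound at five concentrations. Insufficient inhibition: endpoint recorded as highest concentration tested. GI50 marks 50% less growth. TGI marks complete inhibition of growth.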

In one assay the test system is RXF 393 renal. As to the kind of experiment: NCI-60 cell line screen, 48 h.
`Cc1c(C(=O)CC(=O)C(=O)Nc2ccccc2C(F)(F)F)[n+](=O)c2ccccc2n1[O-]` registered a TGI of 80.1 µM.
For the molecule `Cc1cc(N(CCC#N)CCC#N)ccc1N=Nc1ccc(S(N)(=O)=O)cc1`, the TGI is more than 100 µM.
Molecule `Cc1nc2c(ccc3ncccc32)[nH]1` yielded a TGI of more than 100 µM.
`C1=C2/CC[C@H](Sc3ccccc3)C2C2(CCCCC/1)OCCO2` (stereo partly specified) registered a TGI of 43.4 µM.
The same measure, in the same setting: next, `O=C(CCc1nc(=S)[nH][nH]1)Nc1cc(Cl)c(Cl)cc1Cl`: more than 100 µM; `CN(C)C(=S)N=C(Nc1ccccc1)Nc1ccccc1`: more than 100 µM.
In the case of `Nc1ccccc1S(=O)(=O)N(CC(=O)O)c1ccccc1`, the TGI is more than 100 µM.
`CC1(C)C(=O)/C=C\C(=O)C(C)(C)C2=CC=C(O2)C(C)(C)C(=O)/C=C\C(=O)C(C)(C)C2=CC=C1O2` registered a TGI of more than 100 µM.
`COc1ccccc1N1C(=O)C2c3[nH]c4ccccc4c3C3CCC(C(C)(C)C)CC3C2C1=O` (stereo unspecified) came in with a TGI of more than 100 µM.
`COC(=O)/C(C#N)=C1\NC(=O)c2ccccc21` displayed a TGI of more than 100 µM.
Molecule `COC(=O)c1ccccc1NC(=O)C(=O)Cc1nc2c3c(ccc2[nH]c1=O)C(=O)c1ccccc1C3=O` yielded a TGI of 26.3 µM.

Another assay concerns OVCAR-5 ovarian. The experiment in a line: NCI-60 cell line screen, 48 h.
Take `Cc1c(C(=O)CC(=O)C(=O)Nc2ccccc2C(F)(F)F)[n+](=O)c2ccccc2n1[O-]`: the TGI stood at 65.9 µM.
`Cc1cc(N(CCC#N)CCC#N)ccc1N=Nc1ccc(S(N)(=O)=O)cc1` registered a TGI of more than 100 µM.
For the molecule `Cc1nc2c(ccc3ncccc32)[nH]1`, the TGI is more than 100 µM.
Still for that read-out and setting: the value for `O=C(CCc1nc(=S)[nH][nH]1)Nc1cc(Cl)c(Cl)cc1Cl` was more than 100 µM; that for `CN(C)C(=S)N=C(Nc1ccccc1)Nc1ccccc1` was more than 100 µM.
`Nc1ccccc1S(=O)(=O)N(CC(=O)O)c1ccccc1` displayed a TGI of more than 100 µM.
The molecule `CC1(C)C(=O)/C=C\C(=O)C(C)(C)C2=CC=C(O2)C(C)(C)C(=O)/C=C\C(=O)C(C)(C)C2=CC=C1O2` displayed a TGI of more than 100 µM.
On the same count and under the same terms, the value for `CCn1c(C)nn2c(=O)c3ccccc3nc2c1=O` was more than 100 µM; that for `COC(=O)/C(C#N)=C1\NC(=O)c2ccccc21` was more than 100 µM.
In the case of `COC(=O)c1ccccc1NC(=O)C(=O)Cc1nc2c3c(ccc2[nH]c1=O)C(=O)c1ccccc1C3=O`, the TGI was more than 100 µM.
Same read-out and setting: the value for `COC(=O)C1(C(C)C)CCc2c(OC)ccc(OC)c2C1=O` (stereo unspecified) was more than 100 µM.

In a further assay the test system is HCC-2998 colon. The experiment in a line: NCI-60 cell line screen, 48 h.
In turn, `Cc1c(C(=O)CC(=O)C(=O)Nc2ccccc2C(F)(F)F)[n+](=O)c2ccccc2n1[O-]` showed a TGI of 57.7 µM.
Same read-out and setting: next, `Cc1cc(N(CCC#N)CCC#N)ccc1N=Nc1ccc(S(N)(=O)=O)cc1`: more than 100 µM; `Cc1nc2c(ccc3ncccc32)[nH]1`: more than 100 µM.
The molecule `C1=C2/CC[C@H](Sc3ccccc3)C2C2(CCCCC/1)OCCO2` (stereo partly specified) displayed a TGI of 67.9 µM.
Molecule `O=C(CCc1nc(=S)[nH][nH]1)Nc1cc(Cl)c(Cl)cc1Cl` yielded a TGI of more than 100 µM.
The same measure, in the same setting: next, `CN(C)C(=S)N=C(Nc1ccccc1)Nc1ccccc1`: more than 100 µM; `CC1(C)C(=O)/C=C\C(=O)C(C)(C)C2=CC=C(O2)C(C)(C)C(=O)/C=C\C(=O)C(C)(C)C2=CC=C1O2`: more than 100 µM; `COc1ccccc1N1C(=O)C2c3[nH]c4ccccc4c3C3CCC(C(C)(C)C)CC3C2C1=O` (stereo unspecified): more than 100 µM.
The molecule `CCn1c(C)nn2c(=O)c3ccccc3nc2c1=O` returned a TGI of more than 100 µM.
`COC(=O)/C(C#N)=C1\NC(=O)c2ccccc21` showed a TGI of more than 100 µM.
On the same count and under the same terms, the value for `COC(=O)c1ccccc1NC(=O)C(=O)Cc1nc2c3c(ccc2[nH]c1=O)C(=O)c1ccccc1C3=O` was 43 µM; that for `CCOC(=O)C(C)(C)Oc1ccc2c(-c3ccccc3)cc(=O)oc2c1` was more than 100 µM.
For the molecule `CCC[CH2][Sn]([CH2]CCC)([S]c1cccc2cccnc12)[S]c1cccc2cccnc12`, the GI50 is 0.144 µM and the TGI was 0.3 µM.
`COC(=O)C1(C(C)C)CCc2c(OC)ccc(OC)c2C1=O` (stereo unspecified): the TGI is more than 100 µM.

The next assay relates to NCI-H23 lung. The experiment in a line: NCI-60 cell line screen, 48 h.
`Cc1c(C(=O)CC(=O)C(=O)Nc2ccccc2C(F)(F)F)[n+](=O)c2ccccc2n1[O-]` displayed a TGI of 44.3 µM.
On the same count and under the same terms, the value for `Cc1cc(N(CCC#N)CCC#N)ccc1N=Nc1ccc(S(N)(=O)=O)cc1` was more than 100 µM; that for `Cc1nc2c(ccc3ncccc32)[nH]1` was more than 100 µM.
The same measure, in the same setting: the value for `C1=C2/CC[C@H](Sc3ccccc3)C2C2(CCCCC/1)OCCO2` (stereo partly specified) was 63.3 µM; that for `O=C(CCc1nc(=S)[nH][nH]1)Nc1cc(Cl)c(Cl)cc1Cl` was more than 100 µM; that for `CN(C)C(=S)N=C(Nc1ccccc1)Nc1ccccc1` was more than 100 µM.
`Nc1ccccc1S(=O)(=O)N(CC(=O)O)c1ccccc1` yielded a TGI of more than 100 µM.
Turning to `CC1(C)C(=O)/C=C\C(=O)C(C)(C)C2=CC=C(O2)C(C)(C)C(=O)/C=C\C(=O)C(C)(C)C2=CC=C1O2`, the TGI was more than 100 µM.
With `COc1ccccc1N1C(=O)C2c3[nH]c4ccccc4c3C3CCC(C(C)(C)C)CC3C2C1=O` (stereo unspecified), the TGI is more than 100 µM.
`CCn1c(C)nn2c(=O)c3ccccc3nc2c1=O` came in with a TGI of more than 100 µM.
Take `COC(=O)/C(C#N)=C1\NC(=O)c2ccccc21`: the TGI was more than 100 µM.
On the same count and under the same terms, the value for `COC(=O)c1ccccc1NC(=O)C(=O)Cc1nc2c3c(ccc2[nH]c1=O)C(=O)c1ccccc1C3=O` was 47.2 µM.
`CCOC(=O)C(C)(C)Oc1ccc2c(-c3ccccc3)cc(=O)oc2c1` showed a TGI of more than 100 µM.
For `CCC[CH2][Sn]([CH2]CCC)([S]c1cccc2cccnc12)[S]c1cccc2cccnc12`, the GI50 is 0.161 µM and the TGI worked out at 0.422 µM.

In another assay the test system is KM12 colon. As to the kind of experiment: NCI-60 cell line screen, 48 h.
With `Cc1c(C(=O)CC(=O)C(=O)Nc2ccccc2C(F)(F)F)[n+](=O)c2ccccc2n1[O-]`, the TGI was found to be 61.6 µM.
`Cc1cc(N(CCC#N)CCC#N)ccc1N=Nc1ccc(S(N)(=O)=O)cc1` registered a TGI of more than 100 µM.
`Cc1nc2c(ccc3ncccc32)[nH]1`: the TGI is more than 100 µM.
Molecule `C1=C2/CC[C@H](Sc3ccccc3)C2C2(CCCCC/1)OCCO2` (stereo partly specified) had a TGI of 94 µM.
`O=C(CCc1nc(=S)[nH][nH]1)Nc1cc(Cl)c(Cl)cc1Cl`: the TGI is more than 100 µM.
On the same count and under the same terms, the value for `CN(C)C(=S)N=C(Nc1ccccc1)Nc1ccccc1` was more than 100 µM; that for `CC1(C)C(=O)/C=C\C(=O)C(C)(C)C2=CC=C(O2)C(C)(C)C(=O)/C=C\C(=O)C(C)(C)C2=CC=C1O2` was more than 100 µM.
`CCn1c(C)nn2c(=O)c3ccccc3nc2c1=O` gave a TGI of more than 100 µM.
`COC(=O)/C(C#N)=C1\NC(=O)c2ccccc21` returned a TGI of more than 100 µM.
`COC(=O)c1ccccc1NC(=O)C(=O)Cc1nc2c3c(ccc2[nH]c1=O)C(=O)c1ccccc1C3=O` had a TGI of more than 100 µM.
`COC(=O)C1(C(C)C)CCc2c(OC)ccc(OC)c2C1=O` (stereo unspecified) came in with a TGI of more than 100 µM.

The next assay relates to SK-MEL-2 melanoma. The experiment in a line: NCI-60 cell line screen, 48 h.
Regarding `Cc1c(C(=O)CC(=O)C(=O)Nc2ccccc2C(F)(F)F)[n+](=O)c2ccccc2n1[O-]`, the TGI turned out to be 48.3 µM.
In turn, `Cc1cc(N(CCC#N)CCC#N)ccc1N=Nc1ccc(S(N)(=O)=O)cc1` came in with a TGI of more than 100 µM.
As for `Cc1nc2c(ccc3ncccc32)[nH]1`, the TGI was more than 100 µM.
`C1=C2/CC[C@H](Sc3ccccc3)C2C2(CCCCC/1)OCCO2` (stereo partly specified) gave a TGI of 32.7 µM.
`O=C(CCc1nc(=S)[nH][nH]1)Nc1cc(Cl)c(Cl)cc1Cl` displayed a TGI of more than 100 µM.
Same read-out and setting: the value for `CN(C)C(=S)N=C(Nc1ccccc1)Nc1ccccc1` was more than 100 µM; that for `Nc1ccccc1S(=O)(=O)N(CC(=O)O)c1ccccc1` was more than 100 µM; that for `CC1(C)C(=O)/C=C\C(=O)C(C)(C)C2=CC=C(O2)C(C)(C)C(=O)/C=C\C(=O)C(C)(C)C2=CC=C1O2` was more than 100 µM.
The same measure, in the same setting: the value for `CCn1c(C)nn2c(=O)c3ccccc3nc2c1=O` was more than 100 µM.
In turn, `COC(=O)c1ccccc1NC(=O)C(=O)Cc1nc2c3c(ccc2[nH]c1=O)C(=O)c1ccccc1C3=O` had a TGI of more than 100 µM.
The same measure, in the same setting: next, `CCOC(=O)C(C)(C)Oc1ccc2c(-c3ccccc3)cc(=O)oc2c1`: 48.7 µM.
Molecule `COC(=O)C1(C(C)C)CCc2c(OC)ccc(OC)c2C1=O` (stereo unspecified) gave a TGI of more than 100 µM.

The test system of another assay is HL-60(TB) leukemia. The experiment in a line: NCI-60 cell line screen, 48 h.
`Cc1c(C(=O)CC(=O)C(=O)Nc2ccccc2C(F)(F)F)[n+](=O)c2ccccc2n1[O-]` returned a TGI of 66.2 µM.
`Cc1cc(N(CCC#N)CCC#N)ccc1N=Nc1ccc(S(N)(=O)=O)cc1`: the TGI was more than 100 µM.
Regarding `Cc1nc2c(ccc3ncccc32)[nH]1`, the TGI is more than 100 µM.
Turning to `C1=C2/CC[C@H](Sc3ccccc3)C2C2(CCCCC/1)OCCO2` (stereo partly specified), the TGI is more than 100 µM.
The molecule `O=C(CCc1nc(=S)[nH][nH]1)Nc1cc(Cl)c(Cl)cc1Cl` registered a TGI of more than 100 µM.
The same measure, in the same setting: next, `CN(C)C(=S)N=C(Nc1ccccc1)Nc1ccccc1`: more than 100 µM.
`Nc1ccccc1S(=O)(=O)N(CC(=O)O)c1ccccc1` had a TGI of more than 100 µM.
Regarding `CC1(C)C(=O)/C=C\C(=O)C(C)(C)C2=CC=C(O2)C(C)(C)C(=O)/C=C\C(=O)C(C)(C)C2=CC=C1O2`, the TGI was more than 100 µM.
`COc1ccccc1N1C(=O)C2c3[nH]c4ccccc4c3C3CCC(C(C)(C)C)CC3C2C1=O` (stereo unspecified) registered a TGI of more than 100 µM.
Consider `CCn1c(C)nn2c(=O)c3ccccc3nc2c1=O`, for which the TGI was more than 100 µM.
On the same count and under the same terms, the value for `COC(=O)/C(C#N)=C1\NC(=O)c2ccccc21` was more than 100 µM.
The same measure, in the same setting: the value for `CCOC(=O)C(C)(C)Oc1ccc2c(-c3ccccc3)cc(=O)oc2c1` was 63.8 µM; that for `COC(=O)C1(C(C)C)CCc2c(OC)ccc(OC)c2C1=O` (stereo unspecified) was more than 100 µM.

For the next assay, the system named is RPMI-8226 leukemia. The experiment in a line: NCI-60 cell line screen, 48 h.
As to `Cc1c(C(=O)CC(=O)C(=O)Nc2ccccc2C(F)(F)F)[n+](=O)c2ccccc2n1[O-]`, the TGI turned out to be 24.2 µM.
`Cc1cc(N(CCC#N)CCC#N)ccc1N=Nc1ccc(S(N)(=O)=O)cc1` displayed a TGI of more than 100 µM.
On the same count and under the same terms, next, `Cc1nc2c(ccc3ncccc32)[nH]1`: more than 100 µM; `C1=C2/CC[C@H](Sc3ccccc3)C2C2(CCCCC/1)OCCO2` (stereo partly specified): 73.7 µM.
For `O=C(CCc1nc(=S)[nH][nH]1)Nc1cc(Cl)c(Cl)cc1Cl`, the TGI was more than 100 µM.
`CN(C)C(=S)N=C(Nc1ccccc1)Nc1ccccc1` displayed a TGI of more than 100 µM.
Same read-out and setting: the value for `Nc1ccccc1S(=O)(=O)N(CC(=O)O)c1ccccc1` was more than 100 µM.
Regarding `COc1ccccc1N1C(=O)C2c3[nH]c4ccccc4c3C3CCC(C(C)(C)C)CC3C2C1=O` (stereo unspecified), the TGI is more than 100 µM.
On the same count and under the same terms, next, `CCn1c(C)nn2c(=O)c3ccccc3nc2c1=O`: more than 100 µM; `COC(=O)/C(C#N)=C1\NC(=O)c2ccccc21`: more than 100 µM; `COC(=O)c1ccccc1NC(=O)C(=O)Cc1nc2c3c(ccc2[nH]c1=O)C(=O)c1ccccc1C3=O`: more than 100 µM.
In turn, `CCOC(=O)C(C)(C)Oc1ccc2c(-c3ccccc3)cc(=O)oc2c1` gave a TGI of 49.9 µM.
Take `COC(=O)C1(C(C)C)CCc2c(OC)ccc(OC)c2C1=O` (stereo unspecified): the TGI is more than 100 µM.
